Laboratory results published in article PMC11058275, “Targeted potent antimicrobial and antitumor oxygen-heterocyclic-based pyran analogues: synthesis and computational studies” (Scientific Reports, 2024).
≈ marks a conversion by molar mass, not a printed value. Like-named read-outs stand apart in the source and are kept apart here.

Assays:
MCF-7 (breast cancer) [1] = conditions: values marked b, read-out: IC50 Cancerotoxicity MCF-7; cited from earlier work
[2] = tested on: HCT-116 (human colon cancer); conditions: values marked b, read-out: IC50 Cancerotoxicity HCT-116; cited from earlier work
[3] = tested on: Bacillus cereus (ATCC 10987); experiment: Agar diffusion antibacterial screening (inhibition zone); format: cell-based; conditions: ATCC10987, B. cereus, 1 mg/mL, Mueller–Hinton agar, read-out: Diameter of inhibition zone
Experimental: (§1) The antibacterial activity of β-enamionitriles (4a-q) was screened using Mueller–Hinton agar medium for bacteria in an agar diffusion methodology. Ciprofloxacin (1 mg/mL) was the reference antibiotic drug used in the analysis of collections that included four gram-positive species of multi drug resistant pathogenic bacteria: Staphylococcus aureus (MRSA) (ATCC 6539), Staphylococcus aureus (ATCC 6538), Bacillus cereus (ATCC 10987), Bacillus subtilis (ATCC 6633), and two gram-negative species of multi drug resistant pathogenic bacteria Klebsiella pneumonia (ATCC 13883) and Escherichia coli (ATCC 8739). […] Using a 1 mg/mL concentration of compounds (4a-q), the minimum zone of inhibition (IZ, the area around the antimicrobial agent where bacterial growth is prevented) was established in mm ± standard deviation beyond the well diameter (6 mm). […] The synthetic compound's inhibitory effects on evaluation against these organisms are depicted in Fig. 9 and Table 1.
(§2) Compound 4a-q was screened for its in vitro antimicrobial activities against pathogenic bacteria species using the standard antibiotics Ampicillin, Gentamycin and Ketoconazole as reference drugs as reported previously. The minimum inhibitory concentration (MIC) was determined as previously reported. The antimicrobial activities were performed at the Regional Centre for Mycology & Biotechnology (RCMP), Al-Azhar University.

[4] = tested on: Klebsiella pneumonia (ATCC 13883); experiment: as above; format: cell-based; conditions: Klebsiella pneumoniae, ATCC13883, K. pneumonia, 1 mg/mL, Mueller–Hinton agar, read-out: Diameter of inhibition zone
Experimental: as §1, §2

[5] = tested on: Staphylococcus aureus (ATCC 6538); experiment: as above; format: cell-based; conditions: ATCC6538, S. aureus, 1 mg/mL, Mueller–Hinton agar, read-out: Diameter of inhibition zone
Experimental: as §1, §2

[6] = tested on: Bacillus subtilis (ATCC 6633); experiment: as above; format: cell-based; conditions: ATCC6633, B. subtilis, 1 mg/mL, Mueller–Hinton agar, read-out: Diameter of inhibition zone
Experimental: as §1, §2

[7] = tested on: Escherichia coli (ATCC 8739); experiment: as above; format: cell-based; conditions: ATCC8739, E. coli, 1 mg/mL, Mueller–Hinton agar, read-out: Diameter of inhibition zone
Experimental: as §1, §2

[8] = tested on: Staphylococcus aureus (MRSA) (ATCC 6539); experiment: as above; format: cell-based; conditions: read-out: Diameter of inhibition zone
Experimental: as §1, §2

[9] = tested on: HepG-2 (hepatocellular carcinoma); conditions: values marked b, read-out: IC50 Cancerotoxicity HepG-2; cited from earlier work
[10] = tested on: WI-38 (human diploid fibroblasts); experiment: MTT cytotoxicity assay, normal cells; format: cell-based; conditions: WI-38 normal cells, MTT, 24-h incubation, mean ± standard error, read-out: IC50 Normotoxicity WI-38
From the text: (§4) The antiproliferative activity of the newly synthesized 1H-benzo[f]chromenes derivatives (4a-q) was examined in three human cancer cell lines: MCF-7 (breast cancer), HCT-116 (human colon cancer), and HepG-2 (hepatocellular carcinoma), as well as the two normal cell lines, HFL-1 (human foetal lung) and WI-38 (human diploid fibroblasts), using the 3-(4,5-dimethylthiazol-2-yl)-2,5-diphenyl tetrazolium bromide (MTT) colorimetric assay[56].
(§5) Compounds 4a-q was initially evaluated for in vitro antitumor activity against three different human cell lines: MCF-7, HCT-116 and HepG-2. In-vitro cytotoxicity evaluation was performed at the Regional Center for Mycology & Biotechnology (RCMP), Al-Azhar University under different concentrations (50, 25, 12.5, 6.25, 3.125, 1.56 and 0 µg/mL); vinblastine and doxorubicin are used as reference cytotoxic compounds.

[11] = tested on: HFL-1 (human foetal lung); experiment: MTT cytotoxicity assay, normal cells; format: cell-based; conditions: HFL1, HFL-1 normal cells, MTT, 24-h incubation, mean ± standard error, read-out: IC50 Normotoxicity HFL-1
From the text: as §4, §5

MCF-7 (breast cancer) [12] = experiment: MTT cytotoxicity assay; conditions: Homo sapiens
From the text: as §4, §5

Bacillus subtilis = experiment: MIC, Mueller Hinton broth resazurin assay; format: cell-based; conditions: 24 h, MH broth resazurin
From the text: (§3) The minimum inhibitory concentration, or MIC, is the lowest concentration needed to stop bacterial growth. When evaluating how well antimicrobial agents work against various bacterial strains, MIC values are crucial. […] The right dosage of the antimicrobial agent to be used in the treatment of bacterial infections can also be determined with the aid of the MIC value. Table 2 and Fig. 10 show the minimum inhibitory concentration (MIC) of the active compound 4 g against various bacterial strains.
as §2

Escherichia coli = experiment: MIC, Mueller Hinton broth resazurin assay; format: cell-based; conditions: 24 h, MH broth resazurin
From the text: as §3, §2

Bacillus cereus = experiment: MIC, Mueller Hinton broth resazurin assay; format: cell-based; conditions: 24 h, MH broth resazurin
From the text: as §3, §2

Klebsiella pneumonia = experiment: MIC, Mueller Hinton broth resazurin assay; format: cell-based; conditions: Klebsiella pneumoniae, 24 h, MH broth resazurin
From the text: as §3, §2

[13] = tested on: Staphylococcus aureus (MRSA); experiment: MIC, Mueller Hinton broth resazurin assay; format: cell-based; conditions: 24 h, MH broth resazurin
From the text: as §3, §2

Staphylococcus aureus = experiment: MIC, Mueller Hinton broth resazurin assay; format: cell-based; conditions: 24 h, MH broth resazurin
From the text: as §3, §2

[14] = tested on: HepG-2 (hepatocellular carcinoma); experiment: MTT cytotoxicity assay; format: cell-based; conditions: Homo sapiens
From the text: as §4, §5

[15] = tested on: HCT-116 (human colon cancer); experiment: MTT cytotoxicity assay; format: cell-based
From the text: as §4, §5

[16] = MCF7, 24 h, read-out: IC50 Cancerotoxicity MCF-7
[17] = HepG2, MTT, 24-h incubation, mean ± standard error, read-out: IC50 Cancerotoxicity HepG-2
[18] = MTT, 24-h incubation, mean ± standard error, read-out: IC50 Cancerotoxicity HCT-116

Compound	melting point [°C]	IC50 (MCF-7 (breast cancer) [1]) [µM]	IC50 [2] [µM]	zone of inhibition at 1000 µg/mL [3] [mm]	zone of inhibition at 1000 µg/mL [4] [mm]	zone of inhibition at 1000 µg/mL [5] [mm]	zone of inhibition at 1000 µg/mL [6] [mm]	zone of inhibition at 1000 µg/mL [7] [mm]	zone of inhibition at 1000 µg/mL [8] [mm]	IC50 [9] [µM]	IC50 [10] [µM]	IC50 [11] [µM]	IC50 (MCF-7 (breast cancer) [12]; [16]) [µM]	IC50 [14, 17] [µM]	IC50 [15, 18] [µM]	further results
COc1ccc2c3c(ccc2c1)OC(N)=C(C#N)C3c1ccc(F)cc1 (stereo not shown) [Compound 4a, 3-Amino-1-(4-fluorophenyl)-8-methoxy-1H-benzo[f]chromene-2-carbonitrile]	255 to 256	12.7 ± 0.05	14.2 ± 0.01	13	14	0	0	11	14	1.5 ± 0.01	–	–	–	–	–	–
COc1ccc2c3c(ccc2c1)OC(N)=C(C#N)C3c1ccc(Cl)cc1 (stereo not shown) [Compound 4d, 3-Amino-1-(4-chlorophenyl)-8-methoxy-1H-benzo[f]chromene-2-carbonitrile]	246 to 247	8.6 ± 0.29	6.9 ± 0.97	15	12	0	0	0	12	0.8 ± 0.08	165.5 ± 1.3	164.4 ± 1.1	–	–	–	–
COc1ccc2c3c(ccc2c1)OC(N)=C(C#N)C3c1ccc(Br)cc1 (stereo not shown) [Compound 4e, 3-Amino-1-(4-bromophenyl)-8-methoxy-1H-benzo[f]chromene-2-carbonitrile]	261 to 262	4.9 ± 0.25	2.2 ± 0.58	14	10	0	0	0	12	1.7 ± 0.13	165.3 ± 1.2	189.9 ± 1.1	–	–	–	–
COc1ccc2c3c(ccc2c1)OC(N)=C(C#N)C3c1ccc(F)cc1F (stereo not shown) [Compound 4g, 3-Amino-1-(2,4-difluorophenyl)-8-methoxy-1H-benzo[f]chromene-2-carbonitrile]	300 to 301	–	–	20	16	23	21	14	17	–	190.1 ± 0.3	179.4 ± 0.1	2.7 ± 0.23	1.9 ± 0.5	6 ± 0.11	MIC (Bacillus subtilis): 1000 µg/mL (≈ 2740 µM); MIC (Escherichia coli): 250 µg/mL (≈ 686 µM); MIC (Bacillus cereus): 1000 µg/mL (≈ 2740 µM); MIC (Klebsiella pneumonia): 500 µg/mL (≈ 1370 µM); MIC [13]: 500 µg/mL (≈ 1370 µM); MIC (Staphylococcus aureus): 1000 µg/mL (≈ 2740 µM)
COc1ccc2c3c(ccc2c1)OC(N)=C(C#N)C3c1cc(Br)cc(Br)c1OC (stereo not shown) [Compound 4n, 3-amino-1-(3,5-dibromo-2-methoxyphenyl)-8-methoxy-1H-benzo[f]chromene-2-carbonitrile]	241 to 242	–	–	13	11	0	0	0	14	–	135.4 ± 0.3	139.5 ± 0.1	1.4 ± 0.05	5.6 ± 0.21	1.2 ± 0.06	IC50 (MCF-7 (breast cancer) [12]; MCF7, read-out: IC50 MCF-7): 0.7 ± 0.05 µg/mL; IC50 ([14]; HepG2, given in µg/mL, read-out: IC50 HepG-2): 2.9 ± 0.21 µg/mL; IC50 ([15]; given in µg/mL, read-out: IC50 HCT-116): 0.6 ± 0.06 µg/mL
